Assay results taken from patent US8129426B2, “Water-soluble artemisinin derivatives, their preparation methods, the pharmaceutical compositions and the use thereof” (priority 2005, dated 2012).

What was measured:
[1] = tested on: T-cell proliferation (Con A); experiment: Lymphocyte proliferation test, T-cell proliferation stimulated with Con A; format: cell-based, Balb/c mice; parameters: concentration or dose not given beside the values; conditions: concentration without any cytotoxicity; screened at 10, 1 and 0.1 μm
Procedure: (§1) Experimental animals: inbred Balb/c male mice, 6-8 weeks old.
(§2) RPMI-1640 culture solution (Roswell Park Memorial Institure-1640 medium, from GibcoBRL, Life Technologies, USA) with 10% fetal bovine serum (FBS), 100 U/mL penicillin, 100 μg/mL streptomycin, 10 mM HEPES (4-(2-hydroxyethyl)-1-piperazineethane sulfonic acid) and 50 μM 2-ME (2-Mercaptoethanol).
(§3) Stimulant: Concanavalin (ConA), and bacterial Lipopolysaccharide (LPS, from Escherichia Coli 055: B5), diluted with RPMI-1640 culture solution to suitable concentration before using.
(§4) [2] Lymphocyte Proliferation Test
(§5) 1) Mice were killed by cervical dislocation, and their spleens were collected aseptically and prepared into a single cell suspension. The cell concentration was adjusted to 4×10^6/mL with RPMI-1640 medium containing 10% FBS.
(§6) 2) 100 μL cell suspension, 50 μL testing sample solution, 50 μL ConA or LPS solution were added into a 96-well plate, and for the control group, 50 μL medium containing 10% FBS was added. The total volume was 200 μL.
(§7) 3) The cell culture was incubated in 5% CO2 incubator at 37 °C for 48 hours, and 0.5 μCi [^3H]-thymidine (25 μL/well) was added into each well 7-8 hours before the termination of the incubation.
(§8) 4) After the incubation was terminated, the cells were harvested on a glassfiber film with a cell harvestor (HARVESTER96®, TOMTEC), and after scintillation fluid was added, the incorporation of [^3H]-thymidine in the cell DNA was measured with a liquid scintillation counter (MicroBeta Trilux®, PerkinElmer) to indicate the state of cell proliferation.

[2] = tested on: B-cell proliferation (LPS); experiment: Lymphocyte proliferation test, B-cell proliferation stimulated with LPS; format: cell-based, Balb/c mice; conditions: concentration without any cytotoxicity; screened at 10, 1 and 0.1 μm
Procedure: as §1, §2, §3, §4, §5, §6, §7, §8

[3] = tested on: response lymphocytes in MLR; experiment: Homologous and heterogeneous mixed lymphocyte proliferation reaction (MLR); format: cell-based, C57BL/6 and Balb/c mice; conditions: read-out: EC50, inhibition of proliferation of the response lymphocytes in MLR
Excerpt: [3] Homologous and Heterogeneous Mixed Lymphocyte Proliferation Reaction (MLR)
1) C57BL/6 and Balb/c mice were killed by cervical dislocation, and their spleens were collected aseptically and levigated into a single cell suspension. After removing the erythrocytes, the cell concentration was adjusted to 6×10^6/mL with RPMI-1640 medium containing 10% FBS.
2) The spleen cells of C57BL/6 mice as the response cells and the spleen cells of Balb/c mice (irradiated with Co60, 3000 rads) as the stimulus cells were mixed in equal volumes.
3) 100 μL cell mixture, 100 μL testing sample were added into a 96-well plate. For the control group, 100 μL medium containing 10% serum was added. And single culture controls of the two kinds of cells were set.
4) The cell cultures were incubated in 5% CO2 incubator at 37 °C for 3, 4 or 5 days. 25 μL ^3H diluent (i.e. […] [^3H]-thymidine) was added one day before the termination of the incubation.
5) After the incubation was terminated, the plate was freezed in a −20[…] refrigerator.
6) The cells were harvested on a glassfiber film with a cell harvestor (HARVESTER96′, TOMTEC), and the incorporation of [^3H]-thymidine in DNA was measured with a liquid scintillation counter (MicroBeta Trilux®, PerkinElmer) to indicate the state of cell proliferation.

DTH mice = experiment: Delayed hypersensitive response animal model (DTH); format: in vivo; conditions: for thickness difference of swelling on ears: FIG. 1, DTH mice; for weight difference of ear slices: FIG. 2, DTH mice
Procedure: [4] Delayed Hypersensitive Response Animal Model (DTH)
1) The sensitization was induced by topical application of 20 μL of 0.5% (v/v) DNFB in acetone: olive oil (4:1) onto each rear paw of mice on day 0 and 1;
2) Excipient and testing compounds were given by the oral route 1 day before challenge and then once a day for 2 days (days 8-10);
3) The mice were challenged by application of 10 μL of 0.5% (v/v) DNFB on the inner and outer surfaces of the right ear on day 9;
4) The increase in the ear patch weight (8-mm punches) and ear thickness between the left and right ear was measured 30-48 h after challenge.

[4] = tested on: mice arthritis induced by bovine collagen type II; experiment: Mice arthritis model induced by bovine collagen type II; format: in vivo, DBA/1 mice; conditions: for scorings of the arthritis degree: FIG. 3 and FIG. 4, with and without the compound; for swelling of the mice' joints: oral, p<0.05

CC1CCC2C(C)C(OCC(O)C(N)c3ccccc3)OC3OC4(C)CCC1C32OO4 (stereo not drawn) [Example 8, 3′-phenyl-3′-amino-2′-hydroxy-artemisinin propyl ether (β type)]
inhibiting rate to T-cell proliferation (Con A) [1]: 13%
inhibiting rate to B-cell proliferation (LPS) [2]: 42%

CC1CCC2C(C)C(OCC(O)C(c3ccccc3)N3CCCCC3)OC3OC4(C)CCC1C32OO4 (stereo not drawn) [Example 16, 3′-phenyl-3′-piperidyl-2′-hydroxy-artemisinin propyl ether (β type)]
inhibiting rate to T-cell proliferation (Con A) [1]: 0%
inhibiting rate to B-cell proliferation (LPS) [2]: 51%

CC1CCC2C(C)C(OCCN)OC3OC4(C)CCC1C32OO4 (stereo not drawn) [Example 1, 2′-amino arteether (β type)]
inhibiting rate to T-cell proliferation (Con A) [1]: 65%
inhibiting rate to B-cell proliferation (LPS) [2]: 73%
EC50 [3]: 3480 ± 720 nM
thickness difference of swelling on ears (DTH mice): obviously reduced the swelling degree on ears
weight difference of ear slices (DTH mice): obviously reduced the weight of swelling ears
inhibiting rate of swelling of the ear of mice compared with the control group (DTH mice; oral, 50 mg/kg, p<0.01): 56.5%
scorings of the arthritis degree [4]: can prevent and cure the mice arthritis induced by bovine collagen type II and inhibit the swelling of the sicked joints
swelling of the mice' joints ([4]; 1 mg/kg): obviously reduce the swelling of the mice' joints

CC1CCC2C(C)C(OCC(O)C(NC(C)(C)C)c3ccccc3)OC3OC4(C)CCC1C32OO4 (stereo not drawn) [Example 18, 3-phenyl-3′-tert-butylamino-2′-hydroxy-artemisinin propyl ether (β type)]
inhibiting rate to T-cell proliferation (Con A) [1]: 9%
inhibiting rate to B-cell proliferation (LPS) [2]: 26%

CNCC(O)COC1OC2OC3(C)CCC4C(C)CCC(C1C)C24OO3 (stereo not drawn) [Example 3, 3′-methylamino-2′-hydroxy-artemisinin propyl ether (β type)]
inhibiting rate to T-cell proliferation (Con A) [1]: 47%
inhibiting rate to B-cell proliferation (LPS) [2]: 51%

CC1CCC2C(C)C(OCC(O)CNC(C)(C)C)OC3OC4(C)CCC1C32OO4 (stereo not drawn) [Example 14, 3′-tert-butylamino-2′-hydroxy-artemisinin propyl ether (β type)]
inhibiting rate to T-cell proliferation (Con A) [1]: 52%
inhibiting rate to B-cell proliferation (LPS) [2]: 81%
EC50 [3]: 670 ± 12 nM
thickness difference of swelling on ears (DTH mice): obviously reduced the swelling degree on ears
weight difference of ear slices (DTH mice): obviously reduced the weight of swelling ears
inhibiting rate of swelling of the ear of mice compared with the control group (DTH mice; oral, 50 mg/kg, p<0.01): 52.2%
scorings of the arthritis degree [4]: can prevent and cure the mice arthritis induced by bovine collagen type II and inhibit the swelling of the sicked joints
swelling of the mice' joints ([4]; 0.5 mg/kg): obviously reduce the swelling of the mice' joints

CC1CCC2C(C)C(OCC(O)C(c3ccccc3)N(C)C)OC3OC4(C)CCC1C32OO4 (stereo not drawn) [Example 17, 3′-phenyl-3′-dimethylamino-2′-hydroxy-artemisinin propyl ether (β type)]
inhibiting rate to T-cell proliferation (Con A) [1]: 6%
inhibiting rate to B-cell proliferation (LPS) [2]: 24%

cyclosporine A [reference compound]
inhibiting rate of swelling of the ear of mice compared with the control group (DTH mice; 5 mg/kg): 40.6%

CC1CCC2C(C)C(OCC(O)CN3CCCCC3)OC3OC4(C)CCC1C32OO4 (stereo not drawn) [Example 12, 3′-piperidyl-2′-hydroxy-artemisinin propyl ether (β type)]
inhibiting rate to T-cell proliferation (Con A) [1]: 47%
inhibiting rate to B-cell proliferation (LPS) [2]: 47%

CC1CCC2C(C)C(OCC(O)CN3CCCC3)OC3OC4(C)CCC1C32OO4 (stereo not drawn) [Example 11, 3′-pyrrolidinyl-2′-hydroxy-artemisinin propyl ether (β type)]
inhibiting rate to T-cell proliferation (Con A) [1]: 48%
inhibiting rate to B-cell proliferation (LPS) [2]: 99%
thickness difference of swelling on ears (DTH mice): obviously reduced the swelling degree on ears
weight difference of ear slices (DTH mice): obviously reduced the weight of swelling ears
inhibiting rate of swelling of the ear of mice compared with the control group (DTH mice; oral, 100 mg/kg, p<0.01): 50.5%

CC1CCC2C(C)C(OCC(O)CN)OC3OC4(C)CCC1C32OO4 (stereo not drawn) [Example 2, 3′-amino-2′-hydroxy-artemisinin propyl ether (β type)]
inhibiting rate to T-cell proliferation (Con A) [1]: 48%
inhibiting rate to B-cell proliferation (LPS) [2]: 48%
